# From US5312812A, “Pharmaceutical compositions comprising novel oligopeptides exhibiting selective inhibiting effect upon the proliferation of hemopoietic cells” (Richter Gedeon Vegyeszeti Gyar Rt., priority 1990, dated 1994)
# Where two headings read alike, the source gives them in different places. Where a SMILES comes first, the peptide text is derived from it. Where no end group is shown, it is not given here. [ ]: non-standard residue; d: D form. The star is where a group is joined. pGlu = O=C1CC[C@@H](C(=O)O)N1; Acm = CC(=O)NC*
# Tests used:
# mouse bone marrow cells [1] = type: cell-based
# Protocol: For the long-term cultivation, cells isolated from mouse bone marrow were used in semi-solid agar culture. 1.5×10^5 femoral medulla cells obtained from 2-3 month old male C57B1 mice were suspended in 1 ml of "McCoy 5A" medium (product of Gibco), then the following were added: 20% by volume of horse blood-serum (product of Gibco), 16% by volume of L-cell CSF (colony stimulating factor prepared from the supernatant of […]; product of the Pharmacological Institute of the Medical University of Debrecen, Hungary) and agar-agar to 0.18% by weight. 100 μl of the semi-solid medium were cultivated in a Micropet capillary for 7 days in the above-described manner, then the colonies were counted under a Zeiss-Cytoplast stereomicroscope of 40-times magnification. The results are given as the percentage reduction of the numbers of colonies compared to the untreated control. The tests were carried out in the presence of 0.25 mmole/l mercapto ethanol (+ME) and without mercapto ethanol (-ME).
# human bone marrow cells = conditions: 10^-15 to 10^-4 mole/l, 7-day in vitro treatment; cited from earlier work
# mouse = conditions: two mouse species; dose of 9.1 mg/animal or 1 mg/animal; cited from earlier work
# mouse bone marrow cells [2] = conditions: 10^-15 to 10^-4 mole/l, 7-day in vitro treatment; cited from earlier work
# cell proliferation = conditions: cited from earlier work
molecule,measurement,setting,value
"CC(=O)NCSC[C@H](NC(=O)[C@H](CC(=O)O)NC(=O)[C@H](CCC(=O)O)NC(=O)[C@@H]1CCC(=O)N1)C(=O)N[C@@H](CCCCN)C(=O)O [SEQ I.D. No: 1, Xaa Glu Asp Cys Lys] ([pGlu]EDC(Acm)K-OH)",percentage reduction of the numbers of colonies compared to the untreated control,mouse bone marrow cells [1]; 1e-12 mole/l,70%
same,percentage reduction of the numbers of colonies compared to the untreated control,mouse bone marrow cells [1]; 1e-8 mole/l,77%
same,percentage reduction of the numbers of colonies compared to the untreated control,mouse bone marrow cells [1]; 1e-4 mole/l,81%
"CC(=O)NCSC[C@H](NC(=O)[C@H](CC(=O)O)NC(=O)[C@@H](N)CCC(=O)O)C(=O)N[C@@H](CCCCN)C(=O)O [SEQ I.D. No: 2, Glu Asp Cys Lys] (H-EDC(Acm)K-OH)",percentage reduction of the numbers of colonies compared to the untreated control,mouse bone marrow cells [1],29%
same,percentage reduction of the numbers of colonies compared to the untreated control,mouse bone marrow cells [1]; 1e-12 mole/l,36%
same,percentage reduction of the numbers of colonies compared to the untreated control,mouse bone marrow cells [1]; 1e-10 mole/l,52%
same,percentage reduction of the numbers of colonies compared to the untreated control,mouse bone marrow cells [1]; 1e-9 mole/l,26%
same,percentage reduction of the numbers of colonies compared to the untreated control,mouse bone marrow cells [1]; 1e-8 mole/l,64%
same,percentage reduction of the numbers of colonies compared to the untreated control,mouse bone marrow cells [1]; 1e-6 mole/l,66%
"NCCCC[C@H](NC(=O)[C@H](CS)NC(=O)[C@H](CC(=O)O)NC(=O)[C@H](CCC(=O)O)NC(=O)[C@@H]1CCC(=O)N1)C(=O)O [SEQ I.D. No: 5, Xaa Glu Asp Cys Lys] (HELM PEPTIDE1{[Glp].E.D.C.K}$$$$V2.0)",toxicity to bone marrow cells,human bone marrow cells,not toxic
same,toxicity to mice,mouse,not toxic
same,toxicity to bone marrow cells,mouse bone marrow cells [2],not toxic
"Xaa Glu Asp Cys Lys Xaa Glu Asp Cys Lys ([pGlu]EDCK[pGlu]EDCK; not fully specified; printed as Xaa Glu Asp Cys Lys Xaa Glu Asp Cys Lys; cysteine pairing not given here) [SEQ I.D. No: 3, dimer molecule of the hemoregulating pentapeptide, Xaa is pyroglutamic acid]",effect on cell proliferation,cell proliferation,cell proliferation stimulating effect
"Xaa Glu Asp Met Lys ([pGlu]EDMK) [SEQ I.D. No: 4, Met analogue of the pentapeptide, Xaa is pyroglutamic acid]",effect on cell proliferation,cell proliferation,ineffectiveness
